Measured values taken from patent publication US4588750A, “Therapeutic compositions for reducing sebum secretion” (Hoffmann-La Roche Inc., priority 1983, dated 1986).

How the values were obtained:
[1] = system: sebum secretion; experiment: Inhibition of testosterone propionate-stimulated sebum secretion in castrated male rats (Table I); assay type: in vivo; conditions: for Mean ± S.E. "Sebum" / % Inhibition of testosterone-stimulated increase in "sebum": 14 days
Description: The effect of the (E) form of the compound of formula I on sebum secretion in mammals, such as rats, was determined according to the following procedure. Male rats weighing about 50-60 g. were castrated at the age of 21-22 days. One week after surgery, the rats were washed in a detergent solution to remove "sebum" which was secreted prior to the test period. One group of rats were treated only with the carrier vehicles employed. Another group of rats received only testosterone propionate in sesame oil, 100 ug/0.2 ml/rat/day […]. Other groups of rats were given testosterone propionate in sesame oil (100 ug/0.2 ml/rat/day subcutaneously) and 1,2,3,4-tetrahydro-1,1,4,4-tetramethyl-6-[(E)-α-methylstyryl]naphthalene, with different amounts of 1,2,3,4-tetrahydro-1,1,4,4-tetramethyl-6[(E)-α-methylstyryl]naphthalene being administered to each of the other groups orally in 0.2 ml/rat/day propylene glycol. The rats were treated with the compounds for 14 days. On the 15th day total body immersion in a fixed volume of acetone with mixing for two minutes removed surface "sebum" from skin and fur. An aliquot of the solvent bath was dried and the solid residue was measured gravimetrically. Inhibition of the testosterone-stimulated increase in "sebum" over solely testosterone propionate stimulated rats was used as the parameter of response.

[2] = system: sebaceous glands (flank organs); experiment: Inhibition of testosterone propionate-stimulated flank organ weight increase in castrated male hamsters (Table II); assay type: in vivo
Description: The effect of the (E) form of the compound of formula I on sebaceous glands in mammals was further determined using hamsters, according to the following procedure. […] Animals were treated for 14 days and the response was measured by weight changes in flank organs removed at autopsy. Separate groups of hamsters served as vehicle controls and testosterone alone groups. Activity was measured by inhibition of the increase in weight which occurs in response to stimulation with testosterone propionate.

[3] = system: abdominal sebaceous gland pad organs; experiment: Inhibition of testosterone-stimulated abdominal sebaceous gland pad weight increase in castrated male gerbils (Table III); assay type: in vivo
Description: The effect of the (E) form of the compound of formula I on sebaceous glands in mammals was further determined using gerbils, according to the following procedure. Male gerbils were castrated at 8 weeks of age and one week after surgery were treated with 5 ug free testosterone and 1,2,3,4-tetrahydro-1,1,4,4-tetramethyl-6-[(E)-α-methylstyryl]naphthalene topically in acetone on the abdominal sebaceous gland pad organs. Animals were treated for 14 days and the response was measured by weight changes in these organs removed at autopsy. Separate groups of gerbils served as vehicle controls and testosterone alone groups. Activity was measured by inhibition of the increase in weight which occurs in response to stimulation with testosterone.

[4] = Hypervitaminosis A test; set-up: species or system mice; conditions: mouse, in vivo
Description: A hypervitaminosis A test was carried out on mice weighing 25-27 g. which received i.p. injections of 1,2,3,4-tetrahydro-1,1,4,4-tetramethyl-6-[(E)-α-methylstyryl]naphthalene in arachis oil over a 14 day period. Hypervitaminosis A is defined as being that condition of the animals where the symptoms (weight loss, skin desquamtion, loss of hair, bone fractures of extremities) added up to at least 3, c.f. W. Bollag, Cancer, 1974, 10, 731.

[5] = Teratogenicity tests, for fetal abnormalities; assay type: in vivo, Charles River CD rats; conditions: 10, 50 or 150 mg/kg daily orally, gestation days 8 and 9
Description: In order to further determine the safety of the (E) form of the compound of formula I teratogenicity tests, for fetal abnormalities, were carried out in rats according to the following procedure. 1,2,3,4-tetrahydro-1,1,4,4-tetramethyl-6-[(E)-α-methylstyryl]naphthalene was provided to Charles River CD rats on gestation days 8 and 9 using a daily dose of 10 , 50 or 150 mg/kg of this substance dissolved or suspended in a polyethelene glycol formulation containing traces of antioxidants (ascorbyl palmitate and butylated hydroxyanisole). The compound was administered orally at a constant volume of 5 ml/kg. The rats were then sacrificed on gestation day 20 and examined.

[6] = Skin irritation, topical application to the ears; assay type: in vivo, Charles River CD-1 mice; conditions: topically in 25 μl/day acetone, doses up to 100 μg/day, 7 consecutive days
Description: 1,2,3,4-tetrahydro-1,1,4,4-tetramethyl-6-[(E)-α-methylstyryl]naphthalene was applied topically to the ears of 21-day-old male Charles River CD-1 mice for 7 consecutive days in 25 μl/day acetone. During treatment mice are observed for development of erythema on the ears, and uniform skin punches are taken at autopsy on day 8. Wet and dry weights of the skin samples were determined and compared to weights from vehicle-treated control animals. Increases in fluid content of the skin punches served as a measure of edema when irritation and inflammation had occurred.

[7] = General tolerability statement; assay type: in vivo; conditions: pharmacologically suitable dosages
[8] = system: papilloma; conditions: cited from earlier work

**Q.** What does the source list for `CCC(=O)O[C@H]1CC[C@H]2[C@@H]3CCC4=CC(=O)CC[C@]4(C)[C@H]3CC[C@]12C` [T.P., testosterone propionate, reference compound]?
**A.** Mean ± S.E. "Sebum" ([1]; 100 ug/rat/day s.c. T.P. alone (0 ug compound), 8 rats, first experiment): 25.1 ± 1.4 ug/100 ul; Mean ± S.E. "Sebum" ([1]; 100 ug/rat/day s.c. T.P. alone (0 ug compound), 9 rats, second experiment): 30.1 ± 1.0 ug/100 ul; Mean ± S.E. Flank Organ ([2]; T.P. alone, 5 ug, 14 days, 8 hamsters): 33.8 ± 2.0 mg

**Q.** With `C[C@]12CC[C@H]3[C@@H](CCC4=CC(=O)CC[C@@]43C)[C@@H]1CC[C@@H]2O` [Testosterone, testosterone, reference compound] as the compound, how does the “Mean ± S.E. Sebaceous Gland Pad” value ([3]; Testosterone alone, 5 ug, 14 days, 10 gerbils) read?
**A.** 72.5 ± 5.8 mg

**Q.** Which results are given for `C/C(=C\c1ccccc1)c1ccc2c(c1)C(C)(C)CCC2(C)C` [1,2,3,4-tetrahydro-1,1,4,4-tetramethyl-6-[(E)-α-methylstyryl]naphthalene]?
**A.** Mean ± S.E. "Sebum" ([1]; 0.5 ug/rat/day p.o. + T.P. 100 ug/rat/day s.c., 8 rats, NS vs T.P. alone): 25.1 ± 1.9 ug/100 ul; Mean ± S.E. "Sebum" ([1]; 1 ug/rat/day p.o. + T.P. 100 ug/rat/day s.c., 8 rats, NS vs T.P. alone): 26.8 ± 1.6 ug/100 ul; Mean ± S.E. "Sebum" ([1]; 2 ug/rat/day p.o. + T.P. 100 ug/rat/day s.c., 8 rats, NS vs T.P. alone): 22.1 ± 1.2 ug/100 ul; Mean ± S.E. "Sebum" ([1]; 4 ug/rat/day p.o. + T.P. 100 ug/rat/day s.c., 8 rats, NS vs T.P. alone): 21.6 ± 1.6 ug/100 ul; % Inhibition of testosterone-stimulated increase in "sebum" ([1]; 10 ug/rat/day p.o. + T.P. 100 ug/rat/day s.c.): 61%; Mean ± S.E. "Sebum" ([1]; 10 ug/rat/day p.o. + T.P. 100 ug/rat/day s.c., 9 rats, p<.01 vs T.P. alone): 23.4 ± 1.6 ug/100 ul; % Inhibition of testosterone-stimulated increase in "sebum" ([1]; 20 ug/rat/day p.o. + T.P. 100 ug/rat/day s.c.): 70%; Mean ± S.E. "Sebum" ([1]; 20 ug/rat/day p.o. + T.P. 100 ug/rat/day s.c., 9 rats, p<.01 vs T.P. alone): 22.4 ± 1.6 ug/100 ul; % Inhibition of testosterone-stimulated increase in "sebum" ([1]; 40 ug/rat/day p.o. + T.P. 100 ug/rat/day s.c.): 73%; Mean ± S.E. "Sebum" ([1]; 40 ug/rat/day p.o. + T.P. 100 ug/rat/day s.c., 9 rats, p<.001 vs T.P. alone): 22.1 ± 0.9 ug/100 ul; % Inhibition of testosterone-stimulated increase in "sebum" ([1]; 100 ug/rat/day p.o. + T.P. 100 ug/rat/day s.c.): 93%; Mean ± S.E. "Sebum" ([1]; 100 ug/rat/day p.o. + T.P. 100 ug/rat/day s.c., 9 rats, p<.001 vs T.P. alone): 19.9 ± 1.2 ug/100 ul; sebum secretion (in words) ([1]; 100 ug/rat/day p.o. + T.P. 100 ug/rat/day s.c., compared to T.P. alone): decreased to virtually normal level; % Inhibition of testosterone-stimulated increase in flank organ weight ([2]; 0.5 μg topically + T.P. 5 ug, 14 days, 9 hamsters): 38%; Mean ± S.E. Flank Organ ([2]; 0.5 μg topically + T.P. 5 ug, 14 days, 9 hamsters, p<.001 vs T.P. alone): 26.0 ± 1.6 mg; inhibition of flank organ weight increase ([2]; 0.5 ug/animal/day topically with 5 μg T.P., vs testosterone alone): ~38%; % Inhibition of testosterone-stimulated increase in sebaceous gland pad weight ([3]; 1 ug topically + testosterone 5 ug, 14 days, 10 gerbils): 54%; Mean ± S.E. Sebaceous Gland Pad ([3]; 1 ug topically + testosterone 5 ug, 14 days, 10 gerbils, p<.01 vs testosterone alone): 45.6 ± 6.9 mg; inhibition of sebaceous gland pad weight ([3]; 1.0 ug/animal/day p.o. (so in the source) with 5 ug testosterone topically, vs testosterone alone): ~54%; undesired side effects such as hypervitaminosis [4]: no undesired side effects such as hypervitaminosis; NOAEL at 336 h ([4]; ip, i.p. in arachis oil, 14 day period, hypervitaminosis A = symptoms adding up to at least 3, read-out: dosage not resulting in hypervitaminosis A (tested up to)): > 400 mg/kg; external malformations ([5]; 187 fetuses): no external malformations were recorded in any of the 187 fetuses; absorption rate ([5]; examined day 20): no adverse effects; fetal weight ([5]; examined day 20): no adverse effects; maternal body weights ([5]; examined day 20): no adverse effects; adverse effects (skin irritation: erythema, edema of ear skin punches) [6]: not to have adverse effects; tolerability [7]: well tolerated without toxic symptoms; effect on papilloma growth ([8]; Loeliger et al., Eur. J. Med. Chem., 15, 9 (1980)): no effect on papilloma growth; papilloma size ([8]; after intraperitoneal administration, Loeliger et al. (1980)): increase in papilloma size
